This is an account of results in PMC11864979, “First-in-class ultralong-target-residence-time p38α inhibitors as a mitosis-targeted therapy for colorectal cancer” (Nature Cancer, 2025).

Holding throughout (experiment): selectivity profiling in a panel of 340 wild-type kinases (Reaction Biology Europe)
Common to all, as to format: binding

Experiment [1] has as its target T1, 340 wild-type kinases (Homo sapiens, UniProt P29323).
T1 construct: purchased Reaction Biology Europe
T1 sequence (P29323 19-1055): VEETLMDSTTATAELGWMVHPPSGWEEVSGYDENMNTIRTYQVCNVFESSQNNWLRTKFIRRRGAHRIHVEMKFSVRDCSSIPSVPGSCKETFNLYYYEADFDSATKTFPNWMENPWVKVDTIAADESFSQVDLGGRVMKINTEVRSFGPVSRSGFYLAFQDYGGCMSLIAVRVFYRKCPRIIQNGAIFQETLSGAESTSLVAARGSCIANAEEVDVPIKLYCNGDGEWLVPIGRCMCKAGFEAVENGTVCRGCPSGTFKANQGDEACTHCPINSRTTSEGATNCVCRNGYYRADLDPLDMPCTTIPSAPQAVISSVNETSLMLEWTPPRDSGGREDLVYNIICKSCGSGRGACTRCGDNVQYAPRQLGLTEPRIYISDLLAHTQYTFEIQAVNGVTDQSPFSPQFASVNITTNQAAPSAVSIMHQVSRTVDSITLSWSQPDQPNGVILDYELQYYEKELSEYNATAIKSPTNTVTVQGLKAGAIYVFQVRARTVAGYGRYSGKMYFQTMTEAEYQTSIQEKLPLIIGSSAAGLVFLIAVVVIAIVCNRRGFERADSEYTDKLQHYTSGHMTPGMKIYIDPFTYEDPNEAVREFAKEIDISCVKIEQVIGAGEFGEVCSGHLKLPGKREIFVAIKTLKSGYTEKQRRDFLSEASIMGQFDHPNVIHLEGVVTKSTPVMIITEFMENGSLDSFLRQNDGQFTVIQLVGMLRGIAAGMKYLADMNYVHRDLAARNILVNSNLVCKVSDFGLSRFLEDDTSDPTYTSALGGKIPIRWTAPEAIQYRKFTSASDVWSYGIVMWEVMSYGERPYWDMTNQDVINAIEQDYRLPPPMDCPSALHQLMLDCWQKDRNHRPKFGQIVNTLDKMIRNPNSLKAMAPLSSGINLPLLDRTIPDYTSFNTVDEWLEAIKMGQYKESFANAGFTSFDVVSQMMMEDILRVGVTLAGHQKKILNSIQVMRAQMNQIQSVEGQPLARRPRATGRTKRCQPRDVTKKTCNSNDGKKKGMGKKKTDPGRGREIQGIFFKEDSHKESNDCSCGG

Experiment [2] deals with T2, 340 wild-type kinases (Homo sapiens, UniProt P52333).
T2 construct: purchased Reaction Biology Europe
T2 sequence (P52333 1-1124): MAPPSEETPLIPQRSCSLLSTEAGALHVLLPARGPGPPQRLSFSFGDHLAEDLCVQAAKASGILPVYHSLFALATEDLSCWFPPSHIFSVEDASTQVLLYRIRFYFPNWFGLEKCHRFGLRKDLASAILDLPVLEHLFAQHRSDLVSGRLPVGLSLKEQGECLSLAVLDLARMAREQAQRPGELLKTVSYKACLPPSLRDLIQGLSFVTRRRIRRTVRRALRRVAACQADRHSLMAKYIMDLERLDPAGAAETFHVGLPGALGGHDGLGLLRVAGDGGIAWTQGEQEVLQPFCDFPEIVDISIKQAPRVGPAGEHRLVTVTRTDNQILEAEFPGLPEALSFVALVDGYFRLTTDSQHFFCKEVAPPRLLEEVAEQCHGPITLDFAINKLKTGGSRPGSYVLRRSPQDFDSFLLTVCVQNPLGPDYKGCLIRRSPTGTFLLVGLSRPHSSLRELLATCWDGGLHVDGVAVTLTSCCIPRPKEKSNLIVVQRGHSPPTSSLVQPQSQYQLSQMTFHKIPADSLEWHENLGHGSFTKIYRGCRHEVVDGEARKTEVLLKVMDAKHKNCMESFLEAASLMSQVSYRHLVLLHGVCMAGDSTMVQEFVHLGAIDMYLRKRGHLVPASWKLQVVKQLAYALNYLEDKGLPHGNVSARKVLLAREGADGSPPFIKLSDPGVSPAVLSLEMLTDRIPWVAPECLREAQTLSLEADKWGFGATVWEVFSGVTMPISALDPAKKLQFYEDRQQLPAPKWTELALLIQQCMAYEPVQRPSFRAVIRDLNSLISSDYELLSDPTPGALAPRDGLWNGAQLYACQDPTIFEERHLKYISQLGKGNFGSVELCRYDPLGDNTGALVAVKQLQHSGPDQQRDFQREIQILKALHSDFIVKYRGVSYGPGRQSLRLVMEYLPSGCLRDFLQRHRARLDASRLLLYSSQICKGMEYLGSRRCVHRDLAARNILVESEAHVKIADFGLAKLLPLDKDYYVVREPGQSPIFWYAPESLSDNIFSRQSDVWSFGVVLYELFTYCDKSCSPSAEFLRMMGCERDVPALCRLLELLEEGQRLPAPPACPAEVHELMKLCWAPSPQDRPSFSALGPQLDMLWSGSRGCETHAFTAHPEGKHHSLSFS

For experiment [3], the target named is T3, 340 wild-type kinases (Homo sapiens, UniProt Q16288).
T3 construct: purchased Reaction Biology Europe

Read-outs that look alike come from different tables or passages of the source.

T3 sequence (Q16288 32-839): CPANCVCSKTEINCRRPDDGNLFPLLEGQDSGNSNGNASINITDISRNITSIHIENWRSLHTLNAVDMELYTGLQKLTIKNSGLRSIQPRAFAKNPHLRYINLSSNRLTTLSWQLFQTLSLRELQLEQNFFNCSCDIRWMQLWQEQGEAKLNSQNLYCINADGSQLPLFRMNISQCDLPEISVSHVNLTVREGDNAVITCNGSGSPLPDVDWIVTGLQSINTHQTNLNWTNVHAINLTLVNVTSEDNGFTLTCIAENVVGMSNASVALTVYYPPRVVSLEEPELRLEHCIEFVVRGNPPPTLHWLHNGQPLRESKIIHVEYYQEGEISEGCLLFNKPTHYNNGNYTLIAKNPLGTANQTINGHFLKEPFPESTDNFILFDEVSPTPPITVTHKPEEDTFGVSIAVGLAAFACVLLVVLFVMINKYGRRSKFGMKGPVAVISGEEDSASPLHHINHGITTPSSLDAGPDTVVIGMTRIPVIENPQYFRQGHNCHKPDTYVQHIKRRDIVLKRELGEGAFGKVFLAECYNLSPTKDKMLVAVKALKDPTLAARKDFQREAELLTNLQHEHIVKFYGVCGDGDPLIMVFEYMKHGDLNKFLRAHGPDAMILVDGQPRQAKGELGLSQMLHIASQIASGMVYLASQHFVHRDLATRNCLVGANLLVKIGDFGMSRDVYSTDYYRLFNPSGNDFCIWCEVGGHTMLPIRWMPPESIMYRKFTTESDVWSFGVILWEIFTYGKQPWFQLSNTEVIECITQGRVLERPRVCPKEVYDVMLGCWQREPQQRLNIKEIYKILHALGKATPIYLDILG

For `CNC(=O)c1ccc2c(c1)C(=O)c1ccc(Nc3ccc(F)c(NC(=O)C4CC4)c3)cc1CC2` [Compound 2015], the remaining activity at 0.2 µM on 340 wild-type kinases [1] (0.2 µM 2015, read-out: EPHB2 residual activity) turned out to be 97.4%; at 340 wild-type kinases [1] (EPHB2, 0.2 µM, read-out: residual activity), 97.4%; on 340 wild-type kinases [2] (0.2 µM 2015, read-out: JAK3 residual activity), 105%; at 340 wild-type kinases [2] (JAK3, 0.2 µM, read-out: residual activity), 105%; on 340 wild-type kinases [3] (0.2 µM 2015, read-out: TRKC residual activity) it was 104%; on 340 wild-type kinases [3] (TRKC, 0.2 µM, read-out: residual activity) it was 104%. The remaining activity at 1 µM on 340 wild-type kinases [1] (1 µM 2015, read-out: EPHB2 residual activity) amounted to 98.5%; at 340 wild-type kinases [1] (EPHB2, 1 µM, read-out: residual activity), 98.5%; on 340 wild-type kinases [2] (1 µM 2015, read-out: JAK3 residual activity), 110%; on 340 wild-type kinases [2] (JAK3, 1 µM, read-out: residual activity) it was 110%; on 340 wild-type kinases [3] (1 µM 2015, read-out: TRKC residual activity), 94.3%; at 340 wild-type kinases [3] (TRKC, 1 µM, read-out: residual activity), 94.3%.
